# Measured values as given in patent US20100331545A1, “REGULATOR FOR SIGNALING TOLL-LIKE RECEPTOR, WHICH COMPRISES CATHEPSIN INHIBITOR AS ACTIVE INGREDIENT” (NIPPON CHEMIPHAR CO., LTD., priority 2007, published 2010).
# Key:
# cathepsin K−/− DCs = experiment: Cytokine production in WT or cathepsin K−/− DCs in response to LPS or CpG, with chloroquine; type: cell-based, mouse; conditions: chloroquine added 1 hour before the stimulation; cytokines IL-12 and IL-6
# Protocol: (§1) Cells were cultured for 3-24 hours with or without PAMPs or plate-bound anti-CD3/CD28 antibodies in the presence or absence of NC-2300, and concentration of cytokines in the culture supernatant was determined by ELISA kits, according to the manufacturer's instructions.
# Cytokine production in WT or cathepsin K^−/− DCs in response to LPS or CpG was measured. Chloroquine was added 1 hour before the stimulation to suppress endosomal acidification. N.D., not detected. *P<0.05, ***P<0.001 (versus WT).
# [1] = test system: rat model of adjuvant arthritis; experiment: Rat adjuvant arthritis, oral NC-2300 compared with alendronate; type: in vivo; conditions: for bone erosion in the ankle (radiological analysis): administered daily day 0 to day 35, soft X-rays of ankle joints day 36
# Protocol: Rats were injected with complete Freund's adjuvant on day 0.
# Bone mineral density of the proximal tibia assessed by pQCT (day 36).
# Assessment for hind paws of adjuvant arthritis rats treated with NC-2300 or vehicle.
# Adjuvant arthritis in hind paw administered with NC-2300 or vehicle was evaluated.
# [2] = test system: extracellular-signal regulated kinases 1/2 (ERK 1/2); experiment: ERK 1/2 phosphorylation in stimulated DCs (immunoblot); type: cell-based, mouse; conditions: CpG-induced
# Protocol: DCs were cultured in low serum medium (0.1% FBS) for 4 hours to reduce background and then stimulated with CpG ODN or LPS in the presence or absence of NC-2300. The stimulated cells were subjected to immunoblot analyses as described in K. Sato et al., Nat Med12, 1410 (2006), using Abs for ERK-1/2, phosphorylated ERK-1/2 and β-actin.
# TLR3 = experiment: Cytokine mRNA expression in poly(I:C)-treated DCs derived from mouse spleen; type: cell-based; conditions: poly(I:C) (TLR3 ligand)-treated mouse spleen DCs, total RNA 3 hours after stimulation
# Protocol: (§2) Quantitative RT-PCR was performed as described in K. Sato et al., Nat Med 12, 1410 (2006). The following primers were used.
# (§3) Spleens were excised from male mice of 8 to 10 weeks. Dendritic cells (DCs) were separated from the spleens using pan DC microbeads (Miltenyi Biotec, Bergisch Gladbach, Germany), according to the manufacturer's instructions.
# (§4) Total RNA was extracted 3 hours after stimulation.
# CD40, CD80 and CD86 = experiment: TLR9-mediated expression of cell surface molecules in DCs (flowcytometry); type: cell-based, mouse; conditions: stimulated 48 hours
# Protocol: (§5) Before staining, cells were incubated with mouse BD Fc Block to minimize nonspecific staining. The cells were then stained with fluorophore-conjugated monoclonal Abs. The following fluorophore-conjugated mAbs were used; Allophycocyanin (APC)-conjugated anti-CD3e (145-2C11), fluorescein isothiocyanate (FITC)-conjugated anti-CD4 (RM4-5), CD11c (HL3), CD40 (3/23), CD80 (16-10Al), CD86 (GL1), I-A^d (AMS-32.1), and Phycoerythrin (PE)-conjugated anti-mouse IL-17 (TC11-18H10). For intracellular cytokine staining, cells were collected and left unstimulated or were stimulated for 5 hours with PMA (40 ng ml^−1) and ion-omycin (4 μg ml^−1) in the presence of GolgiPlug at the recommended concentration. Standard intracellular cytokine staining was performed as follows; cells were first stained extracellularly with APC-conjugated anti-CD3 and FITC-conjugated anti-CD4 mAbs, then were fixed and permeabilized with Cytofix/Cytoperm solution, and finally were stained intracellularly with PE-conjugated anti-IL-17 mAb. Flowcytometric analysis was performed by FACScan with CellQuest software or FACSCanto II with Diva software.
# DCs were stimulated with CpG or LPS for 48 hours and analyzed by flowcytometry.
# TLR9 [3] = experiment: Cytokine mRNA expression in CpG-treated BM-DCs (quantitative RT-PCR); type: cell-based, mouse
# Protocol: as §2
# The level of mRNA expression was normalized with that of β-actin expression.
# BM-DCs were generated by either GM-CSF or Flt3L. Total RNA was extracted 6 hours after CpG stimulation.
# cathepsin K = biological target: T1, cathepsin K (Mus musculus, UniProt P55097); experiment: Enzymatic activity of cathepsin K in BM-DCs (substrate Z-Gly-Pro-Arg-MCA); type: cell-based; conditions: BM-DCs pre-treated 24 hours, cell lysates
# T1 construct: cell lysates were subjected to enzymatic assay; endogenous in cells; host or cells: bone marrow-derived dendritic cells (BM-DCs): cells pre-treated with NC-2300, then lysed
# T1 sequence (P55097 115-329): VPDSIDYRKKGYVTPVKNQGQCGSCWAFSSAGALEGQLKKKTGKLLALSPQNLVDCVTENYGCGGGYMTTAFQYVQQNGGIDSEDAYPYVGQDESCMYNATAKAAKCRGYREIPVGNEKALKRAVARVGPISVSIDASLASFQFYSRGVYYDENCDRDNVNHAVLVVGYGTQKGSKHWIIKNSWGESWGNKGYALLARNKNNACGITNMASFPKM
# Protocol: BM-DCs were pre-treated with or without the cathepsin K inhibitor NC-2300 for 24 hours and washed extensively with cold phosphate-buffered saline (PBS), and cell lysates were subjected to enzymatic assay. Cathepsin K activity was measured with cathepsin K specific substrate, Z-Gly-Pro-Arg-MCA (GPR).
# Th17 cells = experiment: Th17 cell induction by splenic DCs cocultured with CD4+ T cells (intracellular staining of IL-17); type: cell-based, mouse; conditions: 3 days coculture
# Protocol: as §5
# CD4-positive T cells and splenic DCs were isolated from the spleen using a magnetic sorter and anti-CD4 microbeads. These cells were stimulated with plate-bound anti-CD3 and anti-CD28 mAbs (1 μg ml^−1 each) for 3 days in the presence of 2 ng ml^−1 human TGF-β, 10 μg ml^−1 each of anti-IFN-γ and anti-IL-4 mAbs, with or without CpG ODN, LPS or PGN.
# Cathepsin K inactivation results in defective Th17 polarization in response to CpG, but not LPS or PGN were measured. CD4^+T cells and DCs were sorted from the spleen, and cocultured in the presence of CpG, LPS, or PGN for 3 days. After the culture, percentages of CD3e^+CD4^+IL-17^+ cells were analyzed by flowcytometry.
# [4] = test system: T cells stimulated with anti-CD3/CD28 antibodies; experiment: Cell proliferation assay of T cells stimulated with anti-CD3/CD28 antibodies; type: cell-based, mouse
# Protocol: Cell proliferation was evaluated by using a Cell Proliferation ELISA kit according to the manufacturer's protocol.
# TLR7, 8 = experiment: Cytokine mRNA expression in R837-treated DCs derived from mouse spleen; type: cell-based; conditions: R837 (TLR7, 8 ligand)-treated mouse spleen DCs, total RNA 3 hours after stimulation
# Protocol: as §2, §3, §4
# [5] = test system: T cells stimulated with anti-CD3/CD28 antibodies; experiment: IL-2 production of T cells stimulated with anti-CD3/CD28 antibodies (ELISA); type: cell-based, mouse
# Protocol: as §1
# TLR9 [6] = experiment: CpG-stimulated cytokine production by BM-DCs (ELISA); type: cell-based, mouse; conditions: CpG (TLR9 ligand), 24 hours
# Protocol: (§6) Immature DCs were generated from mouse BM, as described in K. Inaba et al., J. Exp. Med. 176,1693 (1992). In brief, BM cells were cultured with 10 ng ml^−1 murine GM-CSF or 10 ng ml^−1 murine Flt3L in RPMI 1640 medium supplemented with 10% FBS for 6 days. Loosely adherent cells were harvested by gentle pipetting and were used as BM-derived DCs. To obtain BM-derived macrophages, BM cells were cultured with 10 ng ml^−1 M-CSF in α-MEM medium supplemented with 10% FBS for 2 days, and adherent cells were used as BM-derived macrophages. For the pathogen-associated molecular pattern (PAMP) stimulation, cells were plated at 5×10^5 cells ml^−1 in 24-well plates, and cultured with 10 ng ml^−1 Lipopolysaccharide (LPS), 30 μg ml^−1 Peptidoglycan Type I (PGN), or Endotoxin-free phosphorothioate-stabilized CpG oligodeoxynucleotides (CpG ODN).
# as §1
# BM-DCs were stimulated with peptidoglycan (PGN), lipopolysaccharide (LPS), and unmethylated CpG oligodeoxynucleotides (CpG) for 24 hours and the culture super-natants were subjected to ELISA. *P<0.05, ***P<0.001 (versus control).
# BM-DCs = experiment: In vitro development of BM-DCs; type: cell-based, mouse
# Protocol: as §6
# BM-derived macrophages = experiment: Activation of BM-derived macrophages stimulated by PAMPs; type: cell-based, mouse
# Protocol: as §6, §1
# [7] = arthritic rats, high dose treatment, day 35
# [8] = BM-DCs, total RNA 6 hours after CpG stimulation
smiles,measurement,setting,value
CCN(CC)CCCC(C)Nc1ccnc2cc(Cl)ccc12 (stereo not shown) [chloroquine],cytokine induction in cathepsin K−/− DCs,cathepsin K−/− DCs,further suppressed
"CC(C)COC[C@H](CC(C)C)NC(=O)[C@H]1O[C@@H]1C(=O)[O-].[Na+] [NC-2300, monosodium (2S,3S)-3-[[(1S)-1-isobutoxymethyl-3-methylbutyl]carbamoyl]oxirane-2-carboxylate]",locomotion activity: arthritis-induced incapacitation of rearing behavior,[1]; [7],significantly ameliorated the arthritis-induced incapacitation of rearing behavior
same,locomotion activity: severity of the hind limb lameness,[1]; [7],reduced the severity of the hind limb lameness
same,onset rate of arthritis,[1]; rat adjuvant arthritis,without affecting the onset rate of arthritis
same,paw swelling in the course of arthritis,"[1]; rat adjuvant arthritis, hind paws",ameliorated paw swelling
same,inflammation when administered after the onset of disease,"[1]; rat adjuvant arthritis, administered after the onset of disease",ameliorated inflammation
same,bone erosion in the ankle (radiological analysis),[1]; rat adjuvant arthritis,markedly suppressed bone erosion
same,periarticular osteoporosis in the proximal tibia (bone mineral density),"[1]; rat adjuvant arthritis, pQCT day 36",comparable inhibitory effect
same,phosphorylation of ERK 1/2 in DCs,[2],Suppression
same,cytokine mRNA expression (IFN-1),TLR3,suppressed
same,expression of CD40 in DCs,"CD40, CD80 and CD86",reduced expression
same,expression of CD80 in DCs,"CD40, CD80 and CD86",reduced expression
same,expression of CD86 in DCs,"CD40, CD80 and CD86",reduced expression
same,CpG-induced expression of IL-6 at the mRNA level,TLR9 [3]; [8],downregulated
same,CpG-induced expression of IL-12 at the mRNA level,TLR9 [3]; [8],downregulated
same,CpG-induced expression of IL-23 at the mRNA level,TLR9 [3]; [8],downregulated
same,IFN production by Flt3L-induced DCs in response to CpG,"TLR9 [3]; Flt3L-induced DCs, CpG",suppressed
same,cathepsin K activity in DCs,cathepsin K,inhibited by NC-2300 in a dose-dependent manner
same,ability of DCs to induce Th17 cells,Th17 cells; DCs stimulated with CpG,markedly inhibited
same,ability of DCs to induce Th17 cells,Th17 cells; DCs stimulated with LPS,only when DCs were stimulated with CpG
same,ability of DCs to induce Th17 cells,Th17 cells; DCs stimulated with PGN,only when DCs were stimulated with CpG
same,proliferation of T cells,[4],no effect
same,cytokine mRNA expression (IFN-1),"TLR7, 8",suppressed
same,IL-2 production of T cells,[5],no effect
same,production of IL-12 by DCs,TLR9 [6],significantly inhibited
same,production of IL-23 by DCs,TLR9 [6],significantly inhibited
same,in vitro development of BM-DCs,BM-DCs,no effects
same,activation of BM-derived macrophages,BM-derived macrophages,no significant effects
"NCCCC(O)(P(=O)(O)O)P(=O)(O)O [alendronate, reference compound]",bone erosion in the ankle (radiological analysis),[1]; rat adjuvant arthritis,did not efficiently suppress bone erosion
"CCOC(=O)[C@H]1O[C@@H]1C(=O)N[C@@H](CC(C)C)C(=O)NCCC(C)C [E64d, reference compound]",cytokine mRNA expression (IFN-1),TLR3,suppressed
same,cytokine mRNA expression (IFN-1),"TLR7, 8",suppressed
